Reference: publication doi:10.1101/2025.07.09.663820v1 (biorxiv, 2025)
Substitutions are numbered along the chain they refer to.

Tests used:
Test in all cases: isothermal titration calorimetry
Format in all cases: binding
CHIP13 [1] = target: T1, CHIP13 (Lotus japonicus, UniProt D3KU00, Y232A/F233A); conditions: ectodomain variant
T1 sequence (D3KU00 33-253 Y232A/F233A): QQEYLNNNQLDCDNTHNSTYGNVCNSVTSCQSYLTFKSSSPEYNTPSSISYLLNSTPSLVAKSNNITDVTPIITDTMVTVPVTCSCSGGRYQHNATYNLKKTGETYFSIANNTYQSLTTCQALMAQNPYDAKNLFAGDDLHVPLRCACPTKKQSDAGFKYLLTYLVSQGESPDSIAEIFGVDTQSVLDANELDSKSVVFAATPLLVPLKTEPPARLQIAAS

CHIP13 [2] = target: T2, CHIP13 (Lotus japonicus, UniProt D3KU00); conditions: ectodomain
T2 sequence (D3KU00 33-253): T1 sequence (D3KU00 33-253 Y232A/F233A) with A200Y, A201F

LYR4 = target: T3, LYR4 (Medicago truncatula, UniProt G7K7K0); conditions: ectodomain
T3 sequence (G7K7K0 24-242): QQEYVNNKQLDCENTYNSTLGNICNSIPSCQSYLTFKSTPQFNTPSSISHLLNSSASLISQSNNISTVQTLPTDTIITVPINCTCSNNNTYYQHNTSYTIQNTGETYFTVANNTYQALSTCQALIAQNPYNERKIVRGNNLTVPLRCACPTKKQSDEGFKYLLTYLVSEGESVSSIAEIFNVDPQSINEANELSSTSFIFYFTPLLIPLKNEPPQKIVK

CERK6 = target: T4, CERK6 (Lotus japonicus, UniProt D3KTZ6); conditions: read-out: affinity; ectodomain; crystal structure: CO5 in LysM1 and LysM2
T4 sequence (D3KTZ6 26-223): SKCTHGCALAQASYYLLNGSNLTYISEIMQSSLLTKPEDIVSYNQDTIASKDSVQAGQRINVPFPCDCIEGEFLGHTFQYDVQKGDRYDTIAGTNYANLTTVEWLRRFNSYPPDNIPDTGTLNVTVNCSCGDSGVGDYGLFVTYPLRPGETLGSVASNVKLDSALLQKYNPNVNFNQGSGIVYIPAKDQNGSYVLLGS

MtCERK1 = target: T5, MtCERK1 (Medicago truncatula, UniProt G7J6P5); conditions: read-out: affinity; ectodomain
T5 sequence (G7J6P5 30-232): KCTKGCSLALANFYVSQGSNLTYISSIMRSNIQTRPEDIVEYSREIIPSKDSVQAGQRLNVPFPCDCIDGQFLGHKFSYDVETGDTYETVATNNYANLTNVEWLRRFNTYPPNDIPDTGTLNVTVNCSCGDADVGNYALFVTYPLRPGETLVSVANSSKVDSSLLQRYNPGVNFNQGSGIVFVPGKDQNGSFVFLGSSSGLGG

| Kd (CERK6) [µM] | Kd (MtCERK1) [µM] | Kd (CHIP13 [2]) [µM] | SMILES | Kd (CHIP13 [1]) [µM] | Kd (CHIP13 [2]; crystal structure at 1.35 Å: LysM2, LysM3 and bridge domain site) [µM] | Kd (LYR4) [µM] |
| --- | --- | --- | --- | --- | --- | --- |
|  |  |  | CC(=O)N[C@H]1[C@H](O[C@H]2[C@H](O)[C@@H](NC(C)=O)[C@H](O[C@H]3[C@H](O)[C@@H](NC(C)=O)[C@H](O[C@H]4[C@H](O)[C@@H](NC(C)=O)C(O)O[C@@H]4CO)O[C@@H]3CO)O[C@@H]2CO)O[C@H](CO)[C@@H](O[C@@H]2O[C@H](CO)[C@@H](O[C@@H]3O[C@H](CO)[C@@H](O[C@@H]4O[C@H](CO)[C@@H](O[C@@H]5O[C@H](CO)[C@@H](O)[C@H](O)[C@H]5NC(C)=O)[C@H](O)[C@H]4NC(C)=O)[C@H](O)[C@H]3NC(C)=O)[C@H](O)[C@H]2NC(C)=O)[C@@H]1O (stereo partly shown) [CO8, octa-N-acetyl-chitooctaose] | 107 ± 80 | 0.9 | 1.92 |
| 2800 | 729 | 1270 | CC(=O)N[C@H]1[C@H](O[C@H]2[C@H](O)[C@@H](NC(C)=O)[C@H](O[C@H]3[C@H](O)[C@@H](NC(C)=O)C(O)O[C@@H]3CO)O[C@@H]2CO)O[C@H](CO)[C@@H](O[C@@H]2O[C@H](CO)[C@@H](O[C@@H]3O[C@H](CO)[C@@H](O)[C@H](O)[C@H]3NC(C)=O)[C@H](O)[C@H]2NC(C)=O)[C@@H]1O (stereo partly shown) [CO5, penta-N-acetyl-chitopentaose] |  |  | 96 |
